Assay results: PubChem BioAssay (NCI)
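How tested: cells in 96-well plates exposed to compound for 48 hours at five concentrations. GI50 is the concentration that inhibits growth by half. The concentration for full growth arrest is given as TGI.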

Tests used:
Assay in all cases: inhibition of tumour cell growth, NCI panel, 48 h
786-0 renal = test system: 786-0 renal
A498 renal = test system: A498 renal
A549 NSCLC = test system: A549 NSCLC
ACHN renal = test system: ACHN renal
BT-549 breast = test system: BT-549 breast
CAKI-1 renal = test system: CAKI-1 renal
CCRF-CEM leukemia = test system: CCRF-CEM leukemia
COLO 205 colon = test system: COLO 205 colon
DU-145 prostate = test system: DU-145 prostate
HCC-2998 colon = test system: HCC-2998 colon
HCT-116 colon = test system: HCT-116 colon
HCT-15 colon = test system: HCT-15 colon
HL-60(TB) leukemia = test system: HL-60(TB) leukemia
HOP-62 NSCLC = test system: HOP-62 NSCLC
HOP-92 NSCLC = test system: HOP-92 NSCLC
HS 578T breast = test system: HS 578T breast
HT29 colon = test system: HT29 colon
IGROV1 ovarian = test system: IGROV1 ovarian
K-562 leukemia = test system: K-562 leukemia
KM12 colon = test system: KM12 colon
LOX IMVI melanoma = test system: LOX IMVI melanoma
M14 melanoma = test system: M14 melanoma
MALME-3M melanoma = test system: MALME-3M melanoma
MCF7 breast = test system: MCF7 breast
MDA-MB-231 breast = test system: MDA-MB-231 breast
MDA-MB-435 = test system: MDA-MB-435
MOLT-4 leukemia = test system: MOLT-4 leukemia
NCI-H226 lung = test system: NCI-H226 lung
NCI-H23 lung = test system: NCI-H23 lung
NCI-H460 lung = test system: NCI-H460 lung
NCI-H522 lung = test system: NCI-H522 lung
NCI/ADR-RES ovarian = test system: NCI/ADR-RES ovarian
OVCAR-3 ovarian = test system: OVCAR-3 ovarian
OVCAR-4 ovarian = test system: OVCAR-4 ovarian
OVCAR-5 ovarian = test system: OVCAR-5 ovarian
OVCAR-8 ovarian = test system: OVCAR-8 ovarian
PC-3 prostate = test system: PC-3 prostate
RPMI-8226 leukemia = test system: RPMI-8226 leukemia
RXF 393 renal = test system: RXF 393 renal
SF-268 CNS = test system: SF-268 CNS
SF-295 CNS = test system: SF-295 CNS
SF-539 CNS = test system: SF-539 CNS
SK-MEL-2 melanoma = test system: SK-MEL-2 melanoma
SK-MEL-28 melanoma = test system: SK-MEL-28 melanoma
SK-MEL-5 melanoma = test system: SK-MEL-5 melanoma
SK-OV-3 ovarian = test system: SK-OV-3 ovarian
SN12C renal = test system: SN12C renal
SNB-19 CNS = test system: SNB-19 CNS
SNB-75 CNS = test system: SNB-75 CNS
SR leukemia = test system: SR leukemia
SW-620 colon = test system: SW-620 colon
T-47D breast = test system: T-47D breast
TK-10 renal = test system: TK-10 renal
U251 CNS = test system: U251 CNS
UACC-257 melanoma = test system: UACC-257 melanoma
UACC-62 melanoma = test system: UACC-62 melanoma
UO-31 renal = test system: UO-31 renal

In the case of `CCOC(=O)Nc1nc2cc(OC)c(OC)c(OC)c2s1`, the GI50 (786-0 renal) was 61.2 µM, the TGI (786-0 renal) was > 100 µM and the GI50 (A498 renal) was 26.2 µM. For the same compound, the TGI (A498 renal) was > 100 µM, the GI50 (A549 NSCLC) was > 100 µM and the TGI (A549 NSCLC) was > 100 µM. The GI50 (ACHN renal) was 46.9 µM, the TGI (ACHN renal) was > 100 µM and the GI50 (BT-549 breast) was > 100 µM. The TGI (BT-549 breast) was > 100 µM, the GI50 (CAKI-1 renal) was > 100 µM and the TGI (CAKI-1 renal) was > 100 µM. The GI50 (CCRF-CEM leukemia) was > 100 µM, the TGI (CCRF-CEM leukemia) was > 100 µM and the GI50 (COLO 205 colon) was > 100 µM. For the same compound, the TGI (COLO 205 colon) was > 100 µM, the GI50 (DU-145 prostate) was > 100 µM and the TGI (DU-145 prostate) was > 100 µM. The GI50 (HCC-2998 colon) was > 100 µM, the TGI (HCC-2998 colon) was > 100 µM and the GI50 (HCT-116 colon) was > 100 µM. The TGI (HCT-116 colon) was > 100 µM, the GI50 (HCT-15 colon) was > 100 µM and the TGI (HCT-15 colon) was > 100 µM. The GI50 (HL-60(TB) leukemia) was > 100 µM, the TGI (HL-60(TB) leukemia) was > 100 µM and the GI50 (HOP-62 NSCLC) was 24.9 µM. The TGI (HOP-62 NSCLC) was 95.6 µM, the GI50 (HOP-92 NSCLC) was 15.8 µM and the TGI (HOP-92 NSCLC) was 74.9 µM. The GI50 (HS 578T breast) was 17.5 µM, the TGI (HS 578T breast) was > 100 µM and the GI50 (HT29 colon) was > 100 µM. The TGI (HT29 colon) was > 100 µM, the GI50 (IGROV1 ovarian) was 91 µM and the TGI (IGROV1 ovarian) was > 100 µM. For the same compound, the GI50 (K-562 leukemia) was > 100 µM, the TGI (K-562 leukemia) was > 100 µM and the GI50 (KM12 colon) was > 100 µM. For the same compound, the TGI (KM12 colon) was > 100 µM, the GI50 (LOX IMVI melanoma) was > 100 µM and the TGI (LOX IMVI melanoma) was > 100 µM. For the same compound, the GI50 (M14 melanoma) was > 100 µM, the TGI (M14 melanoma) was > 100 µM and the GI50 (MALME-3M melanoma) was > 100 µM. The TGI (MALME-3M melanoma) was > 100 µM, the GI50 (MCF7 breast) was > 100 µM and the TGI (MCF7 breast) was > 100 µM. For the same compound, the GI50 (MDA-MB-231 breast) was 31.5 µM, the TGI (MDA-MB-231 breast) was > 100 µM and the GI50 (MDA-MB-435) was > 100 µM. The TGI (MDA-MB-435) was > 100 µM, the GI50 (MOLT-4 leukemia) was > 100 µM and the TGI (MOLT-4 leukemia) was > 100 µM. The GI50 (NCI-H226 lung) was 73.7 µM, the TGI (NCI-H226 lung) was > 100 µM and the GI50 (NCI-H23 lung) was 28.5 µM. The TGI (NCI-H23 lung) was > 100 µM, the GI50 (NCI-H460 lung) was > 100 µM and the TGI (NCI-H460 lung) was > 100 µM. The GI50 (NCI-H522 lung) was > 100 µM, the TGI (NCI-H522 lung) was > 100 µM and the GI50 (NCI/ADR-RES ovarian) was > 100 µM. For the same compound, the TGI (NCI/ADR-RES ovarian) was > 100 µM, the GI50 (OVCAR-3 ovarian) was 51.5 µM and the TGI (OVCAR-3 ovarian) was > 100 µM. For the same compound, the GI50 (OVCAR-4 ovarian) was > 100 µM, the TGI (OVCAR-4 ovarian) was > 100 µM and the GI50 (OVCAR-5 ovarian) was > 100 µM. For the same compound, the TGI (OVCAR-5 ovarian) was > 100 µM, the GI50 (OVCAR-8 ovarian) was > 100 µM and the TGI (OVCAR-8 ovarian) was > 100 µM. The GI50 (PC-3 prostate) was > 100 µM, the TGI (PC-3 prostate) was > 100 µM and the GI50 (RPMI-8226 leukemia) was > 100 µM. The TGI (RPMI-8226 leukemia) was > 100 µM, the GI50 (RXF 393 renal) was 49.4 µM and the TGI (RXF 393 renal) was > 100 µM. The GI50 (SF-268 CNS) was 50.4 µM, the TGI (SF-268 CNS) was > 100 µM and the GI50 (SF-295 CNS) was 41.4 µM. For the same compound, the TGI (SF-295 CNS) was > 100 µM, the GI50 (SF-539 CNS) was > 100 µM and the TGI (SF-539 CNS) was > 100 µM. For the same compound, the GI50 (SK-MEL-2 melanoma) was 62.6 µM, the TGI (SK-MEL-2 melanoma) was > 100 µM and the GI50 (SK-MEL-28 melanoma) was > 100 µM. For the same compound, the TGI (SK-MEL-28 melanoma) was > 100 µM, the GI50 (SK-MEL-5 melanoma) was > 100 µM and the TGI (SK-MEL-5 melanoma) was > 100 µM. The GI50 (SK-OV-3 ovarian) was 66.5 µM, the TGI (SK-OV-3 ovarian) was > 100 µM and the GI50 (SN12C renal) was > 100 µM. For the same compound, the TGI (SN12C renal) was > 100 µM, the GI50 (SNB-19 CNS) was > 100 µM and the TGI (SNB-19 CNS) was > 100 µM. The GI50 (SNB-75 CNS) was 16.9 µM, the TGI (SNB-75 CNS) was 64.6 µM and the GI50 (SR leukemia) was > 100 µM. The TGI (SR leukemia) was > 100 µM, the GI50 (SW-620 colon) was > 100 µM and the TGI (SW-620 colon) was > 100 µM. The GI50 (T-47D breast) was > 100 µM, the TGI (T-47D breast) was > 100 µM and the GI50 (TK-10 renal) was 42.4 µM. The TGI (TK-10 renal) was > 100 µM, the GI50 (U251 CNS) was 38.7 µM and the TGI (U251 CNS) was > 100 µM. For the same compound, the GI50 (UACC-257 melanoma) was > 100 µM, the TGI (UACC-257 melanoma) was > 100 µM and the GI50 (UACC-62 melanoma) was > 100 µM. For the same compound, the TGI (UACC-62 melanoma) was > 100 µM, the GI50 (UO-31 renal) was 13.9 µM and the TGI (UO-31 renal) was > 100 µM.
